Like-named read-outs stand apart in the source and are kept apart here.
Assays:
Format in all cases: cell-based
U1 cells = assay: U1 cell proliferation (optimization experiments); conditions: concentrations higher than 10 nM
HIV-1 93BR029 = assay: PBL infectivity assay, primary isolate; conditions: Human immunodeficiency virus 1, PBMC; R5 primary isolate, PBMCs, three donors; read-out: Geometric mean INK128 EC50, nM (95% CI)
Text: (§1) PBLs were isolated from buffy coats of HIV seronegative donors (New York Blood Center). The laboratory-adapted strains HIV BaL and HIV HXB2; primary isolates HIV 92BR020, 92UG031, 93BR029, and 93UG082; and multidrug resistant molecular clone NL4329129-2 were obtained from the NIH AIDS Repository. Primary isolate 2044 was from Paul Clapham (Windeyer Institute), and 1633 and 1638 from the Institute of Human Virology (University of Maryland School of Medicine). Maraviroc, efavirenz, raltegravir, and indinavir were from the NIH AIDS Repository. INK128 was purchased from ApexBio. Proliferation of PBLs was measured by the MTT kit (Roche), following the manufacturer's directions. PBL infectivity assays were performed as described herein.
(§2) PBLs were separated from buffy coats by density centrifugation over Ficoll-Hypaque (Sigma™), and activated by culture in the presence of 1 μg/mL anti-human CD3 antibody (clone x35, Fisher Scientific™) and 2 μg/mL anti-human CD28 antibody (Clone CD28.6, eBioscience™) for 3 days. Activated cells were infected by incubation with virus at a multiplicity of infection (MOI) of 0.001 for 2 hours. Infected cells were washed three times with PBS and cultured in 5% CO2 at 37° C., in RPMI/10% FBS supplemented with 100 units/mL IL-2 (Roche™) and antiviral drugs, in 96-well flat-bottom plates at a density of […] PBLs per 200 μL. Following 3 d of culture, half of the medium was replaced with fresh medium containing IL-2 and antiviral drugs. On day 7, viral replication was measured by p24 ELISA (Coulter) in culture supernatants and cell viability was measured by MTT assays.
(§3) EC50 values were determined by variable slope nonlinear regression analysis. Unpaired two-tailed t tests were used to check for statistical significant differences between INK128 EC50 values of R5 HIV versus X4 HIV in infectivity assays. Nonparametric Mann-Whitney tests were used to compare each treatment group and control group in animal studies. Statistical analyses were performed using GraphPad Prism™ (version 4.0). P<0.05 was considered significant.
(§4) The antiviral activity of INK128 was investigated in PBLs infected with CCR5 (R5)-tropic and CXCR4 (X4)-tropic HIV reference strains BaL and HXB2, respectively.

HIV-1 1633 = assay: PBL infectivity assay, primary isolate; conditions: Human immunodeficiency virus 1, PBMC; X4 primary isolate, PBMCs, three donors; read-out: Geometric mean INK128 EC50, nM (95% CI)
Text: as §1, §2, §3, §4

HIV-1 2044 = assay: PBL infectivity assay, primary isolate; conditions: Human immunodeficiency virus 1, PBMC; X4 primary isolate, PBMCs, three donors; read-out: Geometric mean INK128 EC50, nM (95% CI)
Text: as §1, §2, §3, §4

HIV-1 92BR020 = assay: PBL infectivity assay, primary isolate; conditions: Human immunodeficiency virus 1, PBMC; R5 primary isolate, PBMCs, three donors; read-out: Geometric mean INK128 EC50, nM (95% CI)
Text: as §1, §2, §3, §4

HIV-1 92UG031 = assay: PBL infectivity assay, primary isolate; conditions: Human immunodeficiency virus 1, PBMC; R5 primary isolate, PBMCs, three donors; read-out: Geometric mean INK128 EC50, nM (95% CI)
Text: as §1, §2, §3, §4

HIV-1 1638 = assay: PBL infectivity assay, primary isolate; conditions: Human immunodeficiency virus 1, PBMC; X4 primary isolate, PBMCs, three donors; read-out: Geometric mean INK128 EC50, nM (95% CI)
Text: as §1, §2, §3, §4

HIV-1 93UG082 = assay: PBL infectivity assay, primary isolate; conditions: Human immunodeficiency virus 1, PBMC; R5 primary isolate, PBMCs, three donors; read-out: Geometric mean INK128 EC50, nM (95% CI)
Text: as §1, §2, §3, §4

[1] = test system: full-length unspliced HIV mRNA; assay: RT-PCR of unspliced HIV mRNA in U1 cells; conditions: 10 nM PMA, 2 days
Description: FIG. 6 is a bar graph that depicts how INK128 inhibits HIV transcription in U1 cells. U1 cells were cultured in the presence of 10 nM PMA and the indicated concentrations of INK128. After 2 days, cells were collected, mRNA isolated, quantified, reverse transcribed and amplified by real time PCR using unspliced HIV cDNA primer pair US.1a/US.2a and housekeeping [beta]-actin primers. For quantification, standard curves for unspliced HIV cDNA and [beta]-actin sequences were generated by performing 10-fold serial dilutions of mRNA isolated from PBLs acutely infected with HIV BaL. PCR amplification was performed using Quantitect® SYBR Green PCR Kit in a LightCycler®. Negative controls consisted of mixture reactions without the reverse transcription step according to an embodiment.
Total cellular RNA was isolated using the Qiagen™ RNA Isolation Kit (Qiagen™) RNA was then treated with DNase I, Amplification Grade (Invitrogen™), and reverse transcribed with SuperScript III First-Strand Synthesis Supermix™ (Invitrogen™) using hexamer primers. An aliquot of the cDNA was used as a template for PCR amplification of full length, unspliced HIV cDNA using primers US.1a and US.2a, and another aliquot for amplification with primer pairs specific for housekeeping [beta]-actin sequences (63).
The effects of INK128 on activation of HIV in the chronically HIV-infected U1 cell line were examined. […]

[2] = test system: R5 and X4 HIV, laboratory-adapted and primary isolates; assay: Infectivity assays in primary PBLs, summary over strains
Description: as §2, §4

In the case of `CC(C)n1nc(-c2ccc3oc(N)nc3c2)c2c(N)ncnc21` [INK128, 5-(4-amino-1-propan-2-ylpyrazolo[3,4-d]pyrimidin-3-yl)-1,3-benzoxazol-2-amine], the “cell proliferation of U1 cells” value (U1 cells) is reported as “inhibition of cell proliferation”, the EC50 (HIV-1 93BR029) is reported as 4.73 nM and the EC50 (HIV-1 1633) is reported as 17.5 nM. For the same compound, the EC50 (HIV-1 2044) was 36.7 nM, the EC50 (HIV-1 92BR020) was 1.03 nM and the EC50 (HIV-1 92UG031) was 10.2 nM. The EC50 (HIV-1 1638) was 21.2 nM, the EC50 (HIV-1 93UG082) was 2.89 nM and the “synthesis of full-length unspliced HIV mRNA” value [1] was “inhibits synthesis”. The EC50 ([2]; Human immunodeficiency virus 1, Lymphocyte, both R5 and X4 HIV in primary lymphocytes) was less than 50 nM, the EC50 ([2]; Human immunodeficiency virus 1, read-out: EC50s ranging, R5 primary isolates, three donors) was 2.9 to 10.1 nM and the EC50 ([2]; Human immunodeficiency virus 1, read-out: EC50s ranging, X4 primary isolates, three donors) was 17.5 to 36.7 nM.

Reference: patent US11364242B2, “Treatment agents for inhibiting HIV and cancer in HIV infected patients” (UNIVERSITY OF MARYLAND, BALTIMORE, priority 2015, dated 2022)
